How the values were obtained:
Assay type in all cases: cell-based
cortisol = assay: Cortisol produced by skin explants stimulated by ACTH + 42° C. (ELISA); conditions: Metyrapone 1 mM
Protocol: Skin explants were treated topically with a formulation (cream) containing 1% tea oil concentrate, or its placebo, or treated systemically (in the culture medium) with 0.001% tea oil concentrate and the positive reference metyrapone at 1 mM. The explants were incubated for 24 hours then stressed with 0.6 μM ACTH (Adreno Corticotropic Hormone), a hormone that induces cortisol production. This stress was coupled with explant culture in a 42° C. incubator to potentiate the increase in cortisol production. The explants were again treated with topical products or the active ingredient and the positive reference systemically. After 24 hours of incubation, the culture media were recovered and an ELISA assay for cortisol was performed. The results were statistically analyzed by Student's test t.

[1] = system: dermal matrix markers (Collagen III, Fibrillin 1); assay: Gene expression of dermal matrix markers in normal human dermal fibroblasts (real-time PCR); conditions: TGFβ 1 5 ng/ml, 48 hours
Protocol: The effect of tea oil concentrate on the expression of dermal matrix markers was evaluated in cultured normal human dermal fibroblasts.
Normal human dermal fibroblasts were incubated for 48 hours in the presence of 0.001% and 0.005% tea oil concentrate or 5 ng/ml TGFβ1, the positive reference of the test.
Gene expression of Collagen Ill and Fibrillin 1 was evaluated by quantitative real-time PCR. The results were statistically analyzed by one-way analysis of variance (ANOVA), followed by Dunnett's post-test.

[2] = system: interleukin-1 alpha (IL-1 alpha); assay: IL-1 alpha produced by normal human keratinocytes under PMA-induced inflammatory stress (ELISA); conditions: Dexamethasone 0.1 μM, PMA 10 μg/ml
Protocol: (§1) The anti-inflammatory activity of tea oil concentrate (THE) was investigated by assaying interleukin-1 alpha (IL-1 alpha) produced by keratinocytes in response to pro-inflammatory stress induced by PMA (Phorbol-Myristate-Acetate) in a normal human keratinocyte model, in a reconstructed epidermis model subjected to PMA stress, as well as in a reconstructed epidermis model subjected to SDS (Sodium Dodecyl Sulfate) stress.
Normal human keratinocytes were pre-incubated for 24 hours in the presence of 0.001%, 0.005% or 0.01% tea tree oil concentrate or 0.1 μM dexamethasone, an anti-inflammatory reference. The cells were then stimulated by overnight treatment in the presence of 10 μg/mL PMA (Phorbol-Myristate-Acetate).
At the end of treatment, IL-1 alpha produced was quantified by ELISA assay in culture supernatants.
The results were statistically analyzed by one-way analysis of variance (ANOVA), followed by Tukey post-test.

Interleukin-1 alpha = assay: IL-1 alpha produced by reconstructed epidermis stimulated by PMA; conditions: Dexamethasone 1 μM systemically; PMA 0.5 μg/mL
Protocol: as §1
(§2) Reconstructed epidermis were treated topically with a formulation (cream) containing 1% tea tree oil concentrate or its placebo, or systemically with 1 μM dexamethasone, an anti-inflammatory reference. After 24 hours of pre-incubation, epidermis were stimulated with 0.5 μg/mL of PMA and incubated again for 24 hours.
Culture subnatants were collected then IL-1 alpha assay was performed.
(§3) The results were statistically analyzed using ANOVA followed by Tukey's test.
as §2, with “μg/ml” for “μg/mL”, “hours. […]” for “hours.”

[3] = system: CXCL1, IL8, IL6, CCL2, SOD2, HAS2, MMP1, MMP3 gene expression in normal human dermal fibroblasts; assay: Inflamm'aging model: gene expression in fibroblasts incubated with conditioned media of PMA-stimulated reconstructed epidermis; conditions: Dexa. 1 μM; control = 100
Protocol: Tea oil concentrate was evaluated in an in vitro model reproducing the process of “inflammaging”: inflammation, represented by the stimulation of IL-1 alpha production, is induced on reconstructed epidermis. The conditioned media of these reconstructed epidermis are then applied to fibroblasts and the expression of dermal markers, altered by IL1a produced by the epidermis, is evaluated.
as §2, with “μg/ml” for “μg/mL”
Culture subnatants were collected, IL-1 alpha assay was performed on the one hand, and on the other hand, these subnatants (conditioned media) were deposited on cultures of normal human dermal fibroblasts.
After 24 hours of incubation of fibroblasts in the presence of conditioned media, the expression of markers of interest was assessed by real-time quantitative PCR.
as §3

[4] = ACTH 0.6 μM + 42° C., Table 16 (systemic series)

## CC(C)(C(=O)c1cccnc1)c1cccnc1 [Metyrapone, metyrapone]
cortisol; [4]
  Cortisol % Protection: 70%
  Cortisol Relative quantification: 1.08 ± 0.12
cortisol; ACTH 0.6 μM + 42° C., Table 17 (topical series)
  Cortisol Relative quantification: 1.08 ± 0.12
cortisol; Table 17 (topical series)
  Cortisol % Protection (vs ACTH/42° C.): 73%

## TGFβ 1: the positive reference of the test
[1]
  Collagen III gene expression (Relative Quantity): 1.55 ± 0.25
  Fibrillin 1 gene expression (Relative Quantity): 1.53 ± 0.18
[1]; vs control cells
  Collagen III gene expression % induction: +78% p < 0.05
  Fibrillin 1 gene expression % induction: +74% p < 0.05

## C[C@@H]1C[C@H]2[C@@H]3CCC4=CC(=O)C=C[C@]4(C)[C@@]3(F)[C@@H](O)C[C@]2(C)[C@@]1(O)C(=O)CO [Dexamethasone, dexamethasone]
[2]; 24 h pre-incubation
  IL-1 alpha: 66.6 ± 0.5 pg/mL
[2]
  Protection (%): 74%
Interleukin-1 alpha
  % Protection: 48%
  Interleukin-1 alpha: 334 ± 41 pg/mL
[3]
  CCL2 expression level in relative quantity: 193
  CXCL1 expression level in relative quantity: 1503
  HAS2 expression level in relative quantity: 104
  IL6 expression level in relative quantity: 305
  IL8 expression level in relative quantity: 1350
  MMP1 expression level in relative quantity: 52
  MMP3 expression level in relative quantity: 74
  SOD2 expression level in relative quantity: 354

— patent US20260273012A1, “Camellia Oleifera Tea Oil Concentrate and Uses Thereof” (Laboratoires Expanscience, priority 2023, published 2026)
